Reference: patent publication US9974773B2, “Stabilized oxymetazoline formulations and their uses” (Allergan, Inc., priority 2014, dated 2018)
Several values for one entry are separate records, joined by “and”; a condition that tells them apart may be missing. Equal entries are not always repeated. Structures can show the parent of a compound that is named as a salt. Where two headings read alike, the source gives them in different places.

Tests used:
[1] = tested on: patients with moderate to severe facial erythema associated with rosacea; format: in vivo; conditions: for Discontinued: Adverse Event: mITT
Method: An adverse event could therefore be any unfavorable and unintended sign (including an abnormal laboratory finding), symptom, or disease temporally associated with the use of a medicinal (investigational) product, whether or not related to the medicinal (investigational) product. In addition, during the screening period, adverse events were assessed regardless of the administration of a pharmaceutical product.
A clinical determination was made of the intensity of an adverse event. The severity assessment for a clinical adverse event was completed using the following definitions as guidelines:
A determination was made of the relationship (if any) between an adverse event and the study drug or study procedure, as applicable. A causal relationship was present if a determination was made that there was a reasonable possibility that the adverse event may have been caused by the drug or study procedure.
Adverse events were coded using preferred terms and primary System Organ Class (SOC) from the Medical Dictionary for Regulatory Activities (MedDRA), version 15.1. Adverse events were collected both for the screening/baseline period (which were referred to as pretreatment adverse events [PTAEs]) and for the study period after treatment was initiated (which were referred to as postbaseline adverse events; ie, adverse events with start date from study day 1 through study exit). A treatment emergent adverse event (TEAE) was defined a postbaseline adverse event where there was no PTAE of the same MedDRA preferred term or the maximum severity during the postbaseline period was more severe than the maximal severity of any PTAE of the same MedDRA preferred term.
For each preferred term, the incidence of TEAEs was presented and summarized on a per-patient basis as follows: • by preferred term in descending order of incidence rate • by primary SOC in alphabetical order, and preferred term • by primary SOC in alphabetical order, preferred term, and severity (maximum severity)
The maximum severity of a TEAE experienced by a patient was determined by the most severe rating recorded on the eCRF for the patient's given TEAE. The incidence of TEAEs was provided for all TEAEs regardless of causality and for treatment-related TEAEs.

[2] = tested on: patients with moderate to severe facial erythema associated with rosacea; assay: Facial dermal tolerability assessment; format: in vivo, human
Method: Facial dermal tolerability assessment included the investigator's assessments (dryness and scaling of the treatment area) and the patient's assessments (stinging/burning and pruritus [itching] of skin in the application area) as described below:
Facial dermal tolerability assessment were evaluated by investigators and patients on days 1 (pre-dose, hours 1, 2, 4, 6, 8, 10, and 12), 2 (predose), 14 (predose, hours 1, 2, 4, 6, 8, 10, and 12), 28 (pre-dose, hours 1, 2, 4, 6, 8, 10, and 12), 35, and 56. Investigator's assessments included dryness and scaling and patient's assessment included stinging/burning, and pruritus; each had 4-point scales: 0=none, 1=mild, 2=moderate, 3=severe.
The number and percent of patients with at least a 1 severity increase (worsening) from baseline for 1 or more visits was generated by treatment group for day 1, day 14, day 28, and from day 1 through day 28. Raw values were summarized using shift tables and frequency distributions by treatment group. In addition, analyses of raw values and change from baseline at post-baseline timepoints and visits were performed using descriptive statistics. Baseline was the pre-dose assessment on day 1.

[3] = Plasma oxymetazoline pharmacokinetics after dermal administration; format: in vivo; conditions: human, topical or ocular, repeated dermal administration, once-daily or twice-daily, read-out: effective half-life (mean), range across groups
Method: Blood samples were drawn on days 1 and 28 at predose, 2, 4, 6, 8, 10, and 12 hours after the morning dose throughout the study. Additional trough samples were collected on days 2, 14, and 29. The final pharmacokinetic sample was collected on day 35 after all assessments were completed. Plasma was analyzed for oxymetazoline concentrations using a validated liquid chromatography-tandem mass spectrometry method with a lower limit of quantification of 10 pg/mL.
Noncompartmental analysis was performed to determine the maximum observed plasma concentration (Cmax), corresponding time to reach maximum observed plasma concentration (Tmax), area under the plasma concentration-time curve from time 0 to time t (AUC0-t), accumulation ratio (R0), and effective half-life (Teff) of oxymetazoline in plasma. These parameters were calculated, whenever possible. […]
At the selected timepoints, approximately 6 mL of blood was collected into prelabeled K2EDTA lavender top blood collection tubes and gently inverted at least 10 times to ensure adequate mixing of blood and anticoagulant. […] A minimum of 1.0 mL of the harvested plasma was transferred into 2 prelabeled cryovials and stored at −20° C. or below until analyzed. The samples were analyzed using a validated high performance liquid chromatography-tandem mass spectrometry (LC-MS/MS) method with a lower limit of quantitation (LLOQ) of 10 pg/mL. […]

[4] = all oxymetazoline-treated patients

Structure (SMILES): Cc1cc(C(C)(C)C)c(O)c(C)c1CC1=NCCN1 [Oxy, oxymetazoline hydrochloride]
- Discontinued: Adverse Event ([1]; BID): 6 (4.4) Number (%) of Patients
- Discontinued: Adverse Event ([1]; QD): 2 (1.5) Number (%) of Patients
- patients who discontinued due to treatment-related application site adverse events ([1]; all Oxy-treated patients): Seven and 7 patients
- patients with application site acne (TEAE) ([1]; all Oxy-treated patients): 1.50%
- patients with contact dermatitis (TEAE) ([1]; all Oxy-treated patients): 2.6%
- patients with severe treatment-related application site events ([1]; all Oxy-treated patients, 7 severe events): 3 patients
- patients who discontinued the study due to TEAEs [1, 4]: 8 patients
- patients with headache (TEAE) [1, 4]: 4.9%
- patients with treatment-related application site adverse events [1, 4]: 28 patients
- patients with TEAEs ([1]; once-daily dosing): 33.8%
- patients with adverse events during the posttreatment period ([1]; once-daily dosing): 8.3%
- patients with adverse events during the treatment period ([1]; once-daily dosing): 28.6%
- patients with treatment-related TEAEs ([1]; once-daily dosing): 9.8%
- patients with discontinuation from the study due to adverse events ([1]; once-daily group): 1.5%
- patients who discontinued the study ([1]; once-daily treatment groups): 3.0%
- patients with TEAEs ([1]; twice-daily dosing): 32.6%
- patients with adverse events during the posttreatment period ([1]; twice-daily dosing): 7.4%
- patients with adverse events during the treatment period ([1]; twice-daily dosing): 26.7%
- patients with treatment-related TEAEs ([1]; twice-daily dosing): 12.6%
- patients who discontinued the study due to adverse events ([1]; twice-daily group): 4.4%
- patients who discontinued the study ([1]; twice-daily treatment groups): 6.7%
- patients with worsening of stinging/burning at the application site ([2]; once-daily, day 1): 12.8%
- patients with worsening of stinging/burning at the application site ([2]; once-daily, day 14): 12.0%
- patients with worsening of stinging/burning at the application site ([2]; once-daily, day 28): 6.0%
- patients with worsening of stinging/burning at the application site ([2]; twice-daily, day 1): 10.4%
- patients with worsening of stinging/burning at the application site ([2]; twice-daily, day 14): 8.9%
- patients with worsening of stinging/burning at the application site ([2]; twice-daily, day 28): 1.5%
- half-life [3]: 18 to 28 h
